Source: PubChem BioAssay (NCI)
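Five compound concentrations were applied to cells in 96-well plates for 48 hours; endpoints were derived by simple linear interpolation of the resulting dose-response curve. GI50 marks 50% less growth. TGI marks complete inhibition of growth.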

Tests used:
Experiment in all cases: growth of human tumour cells (NCI), 48 h
KM12 colon = tested on: KM12 colon
CAKI-1 renal = tested on: CAKI-1 renal
SF-295 CNS = tested on: SF-295 CNS
SK-MEL-28 melanoma = tested on: SK-MEL-28 melanoma
NCI-H226 lung = tested on: NCI-H226 lung
DU-145 prostate = tested on: DU-145 prostate
HCT-15 colon = tested on: HCT-15 colon
HOP-92 NSCLC = tested on: HOP-92 NSCLC
OVCAR-3 ovarian = tested on: OVCAR-3 ovarian
COLO 205 colon = tested on: COLO 205 colon
SN12C renal = tested on: SN12C renal
UACC-62 melanoma = tested on: UACC-62 melanoma
UO-31 renal = tested on: UO-31 renal
M14 melanoma = tested on: M14 melanoma
OVCAR-5 ovarian = tested on: OVCAR-5 ovarian
SK-MEL-2 melanoma = tested on: SK-MEL-2 melanoma
SK-MEL-5 melanoma = tested on: SK-MEL-5 melanoma
K-562 leukemia = tested on: K-562 leukemia
ACHN renal = tested on: ACHN renal
BT-549 breast = tested on: BT-549 breast
MALME-3M melanoma = tested on: MALME-3M melanoma
SF-539 CNS = tested on: SF-539 CNS
SNB-19 CNS = tested on: SNB-19 CNS
HCC-2998 colon = tested on: HCC-2998 colon
SNB-75 CNS = tested on: SNB-75 CNS
T-47D breast = tested on: T-47D breast
MDA-MB-435 = tested on: MDA-MB-435
PC-3 prostate = tested on: PC-3 prostate
A498 renal = tested on: A498 renal

NC(N)=N/N=C/c1ccc(Br)cc1
TGI (KM12 colon): 15.5 µM | GI50 (CAKI-1 renal): 3.02 µM | TGI (CAKI-1 renal): 15.2 µM | GI50 (SF-295 CNS): 2.95 µM | TGI (SF-295 CNS): 11.8 µM | GI50 (SK-MEL-28 melanoma): 5.61 µM | TGI (SK-MEL-28 melanoma): 18.8 µM | GI50 (NCI-H226 lung): 5.15 µM | TGI (NCI-H226 lung): 17.4 µM | GI50 (DU-145 prostate): 5.5 µM | TGI (DU-145 prostate): 22.1 µM | GI50 (HCT-15 colon): 3.89 µM | TGI (HCT-15 colon): 19 µM | GI50 (HOP-92 NSCLC): 5.78 µM | TGI (HOP-92 NSCLC): 24 µM | GI50 (OVCAR-3 ovarian): 3.41 µM | TGI (OVCAR-3 ovarian): 9.23 µM | GI50 (COLO 205 colon): 2.99 µM | TGI (COLO 205 colon): 7.21 µM | GI50 (SN12C renal): 6.55 µM | TGI (SN12C renal): 20.2 µM | GI50 (UACC-62 melanoma): 5.36 µM | TGI (UACC-62 melanoma): 17.8 µM | GI50 (UO-31 renal): 5.72 µM | TGI (UO-31 renal): 19.7 µM | GI50 (M14 melanoma): 2.21 µM | TGI (M14 melanoma): 5.67 µM | GI50 (OVCAR-5 ovarian): 10.4 µM | TGI (OVCAR-5 ovarian): 24.9 µM | GI50 (SK-MEL-2 melanoma): 12 µM | TGI (SK-MEL-2 melanoma): 26.4 µM | GI50 (SK-MEL-5 melanoma): 2.36 µM | TGI (SK-MEL-5 melanoma): 9.28 µM | GI50 (K-562 leukemia): 3.72 µM | TGI (K-562 leukemia): > 100 µM | GI50 (ACHN renal): 7.2 µM | TGI (ACHN renal): 20.1 µM | GI50 (BT-549 breast): 5.64 µM | TGI (BT-549 breast): 16.7 µM | GI50 (MALME-3M melanoma): 10.1 µM | TGI (MALME-3M melanoma): 22.7 µM | GI50 (SF-539 CNS): 2.33 µM | TGI (SF-539 CNS): 6.35 µM | GI50 (SNB-19 CNS): 5.74 µM | TGI (SNB-19 CNS): 24.2 µM | GI50 (HCC-2998 colon): 1.14 µM | TGI (HCC-2998 colon): 3.16 µM | GI50 (SNB-75 CNS): 1.6 µM | TGI (SNB-75 CNS): 5.76 µM | GI50 (T-47D breast): 5.57 µM | TGI (T-47D breast): 23.7 µM | GI50 (MDA-MB-435): 1.07 µM | TGI (MDA-MB-435): 3.81 µM | GI50 (PC-3 prostate): 4.57 µM | TGI (PC-3 prostate): 24 µM | GI50 (A498 renal): 3.57 µM | TGI (A498 renal): 13.7 µM
